Reference: patent publication US8808771B2, “Active ingredient delivery system with an amorphous metal salt as carrier” (Firmenich SA, priority 2006, dated 2014)

Experiment: Extinction coefficient (phenol band at 280 nm) before and after addition of ACAP, entrapment of naringin
Assay type: physicochemical
Details: for E-value (extinction coefficient, phenol band at 280 nm): diluted 1:12 with 30 wt % ethanolic solution, slightly acidic
Method: A conventional double jet precipitation process, which can be operated both batch wise and in a continuous mode, was used. The active ingredient (Naringin) was firstly dissolved in ethanol or ethanol/water medium. A first stream comprising Ca^2+ ions (provided as calcium chloride solution) and a second stream comprising PO4^3− ions (provided as sodium phosphate), were prepared in order to give a resulting carrier component comprising ACAP solution at 10 g/L. A third stream comprising a standard solution of 2 g/L of naringin in 30% ethanol solution was then prepared.
The three streams were jetted separately into a mixing chamber using a standard y-mixer with the reaction being stopped for equal volumes, i.e. 10 ml Ca^2+ stock solution plus 10 ml PO4^3− stock solution into 10 ml naringin. The extinction coefficient (strong phenol band at 280 nm, slightly acidic conditions) was determined after standardized dilution with 30 wt % ethanolic solution (1:12) and was compared before and after the addition of the ACAP.

In the case of C[C@@H]1O[C@@H](O[C@H]2[C@H](Oc3cc(O)c4c(c3)O[C@H](c3ccc(O)cc3)CC4=O)O[C@H](CO)[C@@H](O)[C@@H]2O)[C@H](O)[C@H](O)[C@H]1O [naringin, Naringin], the “E-value (extinction coefficient, phenol band at 280 nm)” value (after addition of ACAP) is reported as 1.5, the “E-value (extinction coefficient, phenol band at 280 nm)” value (before addition of ACAP) is reported as 3.75 and the “naringin entrapped by the ACAP” value (calculated from the lowering of the E-value) is reported as “at least 70%”.
